Assay results reported in publication PMC9112005, “Sas20 is a highly flexible starch-binding protein in the Ruminococcus bromii cell-surface amylosome” (The Journal of Biological Chemistry, 2022).
Several values for one entry are separate records, joined by “and”; a condition that tells them apart may be missing. Equal entries are not always repeated. Entries after “also recorded” stand apart in the source; their conditions may differ. Where two headings read alike, the source gives them in different places.

Legend:
Sas20d1 = Sas20d1 (Ruminococcus bromii, UniProt Z9RYL2BLZ4); test: ITC binding to Sas20d1; conditions: average of three replicates; for Kd / Kd (μM): 25 °C, 50 mM Hepes pH 7.0, one-site binding model, polysaccharides: based on concentration of binding sites; for N (binding sites): one-site binding model
Description: (§1) ITC measurements were carried out using a TA Instruments Nano ITC. Proteins were dialyzed into 50 mM Hepes (pH = 7.0), and oligosaccharides were prepared using the dialysis buffer. […] For polysaccharide titrations, the concentration of ligand was adjusted to fit a one-site binding model with n = 1; this sets the concentration of the ligand to the concentration of binding sites for the protein within the polysaccharide, as previously described ([77]). The solution was stirred at 250 rpm, and the resulting heat of reaction was measured. Data were analyzed using the TA Instruments NanoAnalyze software package fitting to a one-site binding model.

Sas20d2 W329A = test: ITC binding to Sas20d2 W329A mutant; parameters: species or system Ruminococcus bromii
Sas20d2 W375A = test: ITC binding to Sas20d2 W375A mutant; parameters: species or system Ruminococcus bromii
Sas20d1 Y60A = test: ITC binding to Sas20d1 Y60A mutant; parameters: species or system Ruminococcus bromii; conditions: 25 °C, one-site binding model, average of three replicates
Sca5X25-2a = test: ITC binding to Sca5X25-2a; conditions: 25 °C, one-site binding model, average of three replicates
Description: as §1

Sca5X25-2 = Sca5X25-2 (Ruminococcus bromii, UniProt Z9P1N1M2Z2); test: ITC binding to Sca5X25-2
Description: as §1

Sas20d1 W72A = test: ITC binding to Sas20d1 W72A mutant; parameters: species or system Ruminococcus bromii; conditions: 25 °C, one-site binding model, average of three replicates
Sca5X25-2b = test: ITC binding to Sca5X25-2b; conditions: 25 °C, one-site binding model, average of three replicates
Description: ITC measurements were carried out using a TA Instruments Nano ITC. Proteins were dialyzed into 50 mM Hepes (pH = 7.0), and oligosaccharides were prepared using the dialysis buffer. […] The solution was stirred at 250 rpm, and the resulting heat of reaction was measured. Data were analyzed using the TA Instruments NanoAnalyze software package fitting to a one-site binding model.

Sas20d2 W440A = test: ITC binding to Sas20d2 W440A mutant; parameters: species or system Ruminococcus bromii
Sas20d2 = Sas20d2 (Ruminococcus bromii, UniProt A0A2N0UW79); test: ITC binding to Sas20d2; conditions: for N (binding sites): one-site binding model
Description: as §1

Sas20d2 W481A = test: ITC binding to Sas20d2 W481A mutant; parameters: species or system Ruminococcus bromii; conditions: 25 °C, one-site binding model, average of three replicates
Sas20d1tr = Sas20d1tr (Ruminococcus bromii, UniProt Z9RYL2BLZ4); test: ITC binding to truncated Sas20d1 lacking C-terminal helices
Description: as §1

[1] = 25 °C, one-site binding model, average of three replicates
[2] = Kd (μM), 25 °C, one-site binding model, average of three replicates, asterisk denotes fixed Kd
[3] = 25 °C, 50 mM Hepes pH 7.0, one-site binding model, average of three replicates, polysaccharides: based on concentration of binding sites

Chain of Sas20d2 (A0A2N0UW79 entry or part of it): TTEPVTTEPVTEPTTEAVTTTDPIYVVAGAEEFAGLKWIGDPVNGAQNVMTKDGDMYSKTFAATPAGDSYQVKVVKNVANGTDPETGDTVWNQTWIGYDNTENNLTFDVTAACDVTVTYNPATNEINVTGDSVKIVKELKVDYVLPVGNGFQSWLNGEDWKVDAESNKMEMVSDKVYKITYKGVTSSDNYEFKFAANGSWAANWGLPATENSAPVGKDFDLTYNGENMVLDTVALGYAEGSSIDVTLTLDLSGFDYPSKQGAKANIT
Chain of Sas20d1 (Z9RYL2BLZ4 14-251 limits assumed): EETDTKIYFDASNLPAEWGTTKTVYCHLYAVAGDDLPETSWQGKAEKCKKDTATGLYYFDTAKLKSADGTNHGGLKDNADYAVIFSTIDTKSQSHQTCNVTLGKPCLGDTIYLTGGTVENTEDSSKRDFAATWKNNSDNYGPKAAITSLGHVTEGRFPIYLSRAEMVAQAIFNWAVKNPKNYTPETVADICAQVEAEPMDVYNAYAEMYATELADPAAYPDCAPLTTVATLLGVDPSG
Chain of Sca5X25-2 (Z9P1N1M2Z2 14-256 limits assumed): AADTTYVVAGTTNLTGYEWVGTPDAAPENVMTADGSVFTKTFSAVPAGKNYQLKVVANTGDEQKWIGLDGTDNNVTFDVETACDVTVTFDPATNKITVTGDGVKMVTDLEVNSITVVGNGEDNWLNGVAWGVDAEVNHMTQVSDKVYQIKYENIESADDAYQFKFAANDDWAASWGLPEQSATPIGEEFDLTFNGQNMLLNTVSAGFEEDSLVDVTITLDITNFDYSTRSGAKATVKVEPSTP
Chain of Sas20d1tr (Z9RYL2BLZ4 14-173 limits assumed): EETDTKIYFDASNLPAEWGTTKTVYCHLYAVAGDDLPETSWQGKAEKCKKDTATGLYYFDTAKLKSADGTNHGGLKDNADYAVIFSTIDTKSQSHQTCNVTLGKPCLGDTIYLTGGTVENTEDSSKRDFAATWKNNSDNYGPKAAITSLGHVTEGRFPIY
Chain of Sca5X25-2a (Z9P1N1M2Z2 13-117 limits assumed): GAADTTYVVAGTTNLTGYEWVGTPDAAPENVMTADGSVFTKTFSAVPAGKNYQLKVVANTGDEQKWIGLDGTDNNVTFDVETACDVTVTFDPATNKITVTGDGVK
Chain of Sca5X25-2b (Z9P1N1M2Z2 118-256 limits assumed): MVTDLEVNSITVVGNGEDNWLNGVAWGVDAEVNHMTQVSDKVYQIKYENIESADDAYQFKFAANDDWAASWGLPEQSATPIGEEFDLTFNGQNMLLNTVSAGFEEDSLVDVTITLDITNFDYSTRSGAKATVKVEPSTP

Q: Which Kd (Sas20d1) does the source give for O=[N+]([O-])c1ccc(OC2OC(CO)C(OC3OC(CO)C(OC4OC(CO)C(OC5OC(CO)C(OC6OC(CO)C(OC7OC(CO)C(OC8OC9COC(c%10ccccc%10)OC9C(O)C8O)C(O)C7O)C(O)C6O)C(O)C5O)C(O)C4O)C(O)C3O)C(O)C2O)cc1 (centres unmarked) [B-PNP-M7, benzylidene-blocked para-nitrophenyl maltoheptaoside] here?
A: 7.12 ± 1.53 µM

Q: And the “N (binding sites)” value (Sas20d1)?
A: 1.28 ± 0.29

Q: Which results are given for OC[C@H]1O[C@H](O[C@H]2[C@H](O)[C@@H](O)[C@@H](O[C@H]3[C@H](O)[C@@H](O)[C@@H](O[C@H]4[C@H](O)[C@@H](O)[C@@H](O[C@H]5[C@H](O)[C@@H](O)[C@@H](O[C@H]6[C@H](O)[C@@H](O)[C@@H](O[C@H]7[C@H](O)[C@@H](O)C(O)O[C@@H]7CO)O[C@@H]6CO)O[C@@H]5CO)O[C@@H]4CO)O[C@@H]3CO)O[C@@H]2CO)[C@H](O)[C@@H](O)[C@@H]1O (some centres unmarked) [Maltoheptaose, maltoheptaose]?
A: fold increase in the Kd compared with WT Sas20d2 (Sas20d2 W329A): ~100 fold; Kd (Sas20d2 W329A; [1]): 90.8 ± 25.7 µM; fold increase in the Kd compared with WT Sas20d2 (Sas20d2 W375A): ~100 fold; Kd (Sas20d2 W375A; [1]): 88.1 ± 36 µM; Kd (Sas20d1; Kd (μM)): ≤ 20 µM and 1.5 µM and 1.53 µM; N (binding sites) (Sas20d1): 0.89 ± 0.38; Kd (Sas20d1 Y60A): 8.29 ± 0.51 µM; Kd (μM) (Sas20d1 Y60A): binds; Kd (μM) (Sca5X25-2a): failed to bind; Kd (Sca5X25-2): 0.21 ± 0.029 µM; N (binding sites) (Sca5X25-2; ITC, one-site binding model): 0.81 ± 0.09; Kd (μM) (Sas20d1 W72A): did not bind; Kd (μM) (Sca5X25-2b): failed to bind; fold increase in the Kd compared with WT Sas20d2 (Sas20d2 W440A): ~100 fold; Kd (Sas20d2 W440A; [1]): 90 ± 7.72 µM; fold lower Kd for maltoheptaose over maltotriose (Sas20d2): ~1500 ×; N (binding sites) (Sas20d2): 1.15 ± 0.15; Kd (μM) (Sas20d2 W481A): eliminated binding; fold decrease in binding versus full-length Sas20d1 (Sas20d1tr): ~100 fold; Kd (Sas20d1tr; [2]): 155 ± 63 µM; N (binding sites) (Sas20d1tr; one-site binding model): 1.45 ± 0.27

Q: OC[C@H]1O[C@H](O[C@H]2[C@H](O)[C@@H](O)[C@@H](O[C@H]3[C@H](O)[C@@H](O)C(O)O[C@@H]3CO)O[C@@H]2CO)[C@H](O)[C@@H](O)[C@@H]1O (some centres unmarked) [Maltotriose, maltotriose] was tested. Which “Kd (μM)” value (Sas20d2 W329A; [1]) did it give?
A: loss of binding

Q: And the “Kd (μM)” value (Sas20d2 W375A; [1])?
A: loss of binding

Q: What about the “Kd (μM)” value (Sas20d1 W72A) of the same compound?
A: did not bind

Q: And the “Kd (μM)” value (Sas20d2 W440A; [1])?
A: loss of binding

Q: And the “N (binding sites)” value (Sas20d2)?
A: 1.18 ± 0.05

Q: And the “Kd (μM)” value (Sas20d2 W481A)?
A: eliminated binding

Q: With O=[N+]([O-])c1ccc(O[C@H]2O[C@H](CO)[C@@H](O[C@H]3O[C@H](CO)[C@@H](O[C@H]4O[C@H](CO)[C@@H](O[C@H]5O[C@H](CO)[C@@H](O[C@H]6O[C@H](CO)[C@@H](OC7OC(CO)C(O)C(O)C7O)[C@H](O)[C@H]6O)[C@H](O)[C@H]5O)[C@H](O)[C@H]4O)[C@H](O)[C@H]3O)[C@H](O)[C@H]2O)cc1 (stereo partly drawn) [PNP-M6, PNP-α-maltohexaose] as the compound, how does the Kd (Sas20d1) read?
A: 0.87 ± 0.48 µM

Q: What about the “N (binding sites)” value (Sas20d1) of the same compound?
A: 1.15 ± 0.07

Q: OC[C@H]1O[C@@H]2O[C@H]3[C@H](O)[C@@H](O)[C@@H](O[C@H]4[C@H](O)[C@@H](O)[C@@H](O[C@H]5[C@H](O)[C@@H](O)[C@@H](O[C@H]6[C@H](O)[C@@H](O)[C@@H](O[C@H]7[C@H](O)[C@@H](O)[C@@H](O[C@H]1[C@H](O)[C@H]2O)O[C@@H]7CO)O[C@@H]6CO)O[C@@H]5CO)O[C@@H]4CO)O[C@@H]3CO [α-Cyclodextrin, α-cyclodextrin] was tested. Which “Kd (μM)” value (Sas20d1) did it give?
A: failed to bind

Q: What about the “Kd (μM)” value (Sca5X25-2; ITC, 25 °C, one-site binding model, average of three replicates) of the same compound?
A: Neither Sas20d2 nor Sca5X25-2 bound

Q: What about the “Kd (μM)” value (Sas20d2; [3]) of the same compound?
A: Neither Sas20d2 nor Sca5X25-2 bound; also recorded: failed to bind

Q: And the Kd (Sas20d1tr)?
A: > 1000 µM

Q: With OC[C@H]1O[C@@H]2O[C@H]3[C@H](O)[C@@H](O)[C@@H](O[C@H]4[C@H](O)[C@@H](O)[C@@H](O[C@H]5[C@H](O)[C@@H](O)[C@@H](O[C@H]6[C@H](O)[C@@H](O)[C@@H](O[C@H]7[C@H](O)[C@@H](O)[C@@H](O[C@H]8[C@H](O)[C@@H](O)[C@@H](O[C@H]1[C@H](O)[C@H]2O)O[C@@H]8CO)O[C@@H]7CO)O[C@@H]6CO)O[C@@H]5CO)O[C@@H]4CO)O[C@@H]3CO [β-Cyclodextrin, β-cyclodextrin] as the compound, how does the “Kd (μM)” value (Sas20d1) read?
A: failed to bind

Q: And the Kd (Sca5X25-2)?
A: 346 ± 78.8 µM

Q: And the “N (binding sites)” value (Sca5X25-2; ITC, one-site binding model)?
A: 0.958 ± 0.01

Q: And the “Kd (μM)” value (Sas20d2; [3])?
A: weak binding

Q: And the “N (binding sites)” value (Sas20d2)?
A: 0.98 ± 0.09

Q: And the Kd (Sas20d1tr; Kd)?
A: > 1000 µM

Q: What about the Kd (Sas20d1tr; [2]) of the same compound?
A: 1050 ± 168 µM

Q: With soluble starch as the compound, how does the Kd (Sas20d1) read?
A: ≤ 20 µM

Q: And the Kd (Sas20d2; [3])?
A: ≤ 20 µM
